Assay results taken from article PMC6881072, “The repositioning of epigenetic probes/inhibitors identifies new anti-schistosomal lead compounds and chemotherapeutic targets” (PLoS Neglected Tropical Diseases, 2019).
“Also recorded” adds a separate entry of the source. Like-named read-outs stand apart in the source and are kept apart here.

What was measured:
[1] = system: adult male and female schistosome pairs; assay: In vitro adult schistosome screening (WHO/TDR motility, egg counts); format: cell-based, Schistosoma mansoni; settings: for SELECTIVITY INDEX Adult Females: CC50 HepG2 / adult female EC50; for SELECTIVITY INDEX Adult Males: CC50 HepG2 / adult male EC50; for EC50: Schistosoma mansoni, 72 h
Description: In vitro screening was replicated three times on different dates to account for any biological variation. Briefly three adult worm pairs/well (48-well tissue culture plate format) were placed into DMEM (Gibco, Paisley, UK) supplemented with 10% (v/v) FCS (Gibco, Paisley, UK), 1% (v/v) L-glutamine (Gibco, Paisley, UK) and an antibiotic mixture (150 Units/ml penicillin and 150 μg/ml streptomycin; Gibco, UK). DMSO (0.5% negative control), AUR (10 μM concentration in 0.5% DMSO; positive control) and two-fold titrations of SGC compounds (50 μM– 6.25 μM or 50 μM– 0.05 μM; in 0.5% DMSO max) were added, and together, these adult worm/compound co-cultures were incubated at 37°C for 72 h in a humidified atmosphere containing 5% CO2. Following compound incubation, WHO/TDR readouts of adult worm motility, abundance of H3K36me2 (LLY-507 and BAY-598 treated worms only) in histone extracts and egg counts/well were recorded at 72 h.

S. mansoni schistosomula = assay: In vitro schistosomula screening (Roboworm platform), phenotype and motility; format: cell-based, Schistosoma mansoni; settings: for SELECTIVITY INDEX Schistosomula Motility: CC50 HepG2 / schistosomula motility EC50; for SELECTIVITY INDEX Schistosomula Phenotype: CC50 HepG2 / schistosomula phenotype EC50; for EC50: Schistosoma mansoni; for EC50 / hit / activity against schistosomula, single-point screen: 72 h; for hit / activity against schistosomula, single-point screen: 10 μM, hit cut-offs phenotype -0.15, motility -0.35
Description: Briefly, 384-well tissue culture plates (Perkin Elmer, cat 6007460), containing 20 μl of Basch medium, were wet-stamped using a Biomek NX^P liquid handling platform (Beckman Coulter, UK) with negative (0.625% dimethyl sulfoxide, DMSO) and positive controls (AUR and PZQ at 10 μM final concentration in 0.625% DMSO) as well as 37 SGC compounds (at 10 μM final concentration in 0.625% DMSO). […] To each pre-loaded well (single concentration or titration screens), a total of 100–120 mechanically transformed schistosomula (in 60 μl) were deposited via a WellMate (Thermo Scientific, UK). Schistosomula/compound co-cultures (80 μl in total) were then incubated at 37°C for 72 h in a humidified atmosphere containing 5% CO2. At 72 h, tissue culture plates (containing schistosomula/compound co-cultures) were imaged under the same conditions (37°C in a humidified atmosphere containing 5% CO2) using an ImageXpressXL high content imager (Molecular Devices, UK) with subsequent images processed for phenotype and motility as previously reported and successfully implemented by us at Aberystwyth University. Single point schistosomula screens (10 μM) were repeated two or three times whereas dose response titrations were performed once. Zˊ values obtained from all schistosomula screens ranged from 0.27–0.48 (mean = 0.40) for phenotype and 0.41–0.56 (mean = 0.48) for motility.

[2] = HepG2 cell cytotoxicity, MTT assay; format: cell-based, Human; settings: human, read-out: CC50 (HepG2) (95% Confidence Intervals)
Description: Human Hepatocyte Carcinoma (HepG2) cells (Sigma Aldrich, UK) were utilized to assess SGC epigenetic probe cell cytotoxicity in the application of the MTT (3-(4,5-dimethylthiazol-2-yl)-2,5-diphenyltetrazolium bromide) assay. Briefly, cells were passaged at 70–80% confluence and seeded (20,000 cells/ 50 μL per well) in a 96-well, black-sided, clear-bottomed falcon plate (Fisher Scientific, UK) with the final plate column (8 wells) being treated as a blank (media only). Following a 24 h incubation (5% CO2, 37°C, humidified), HepG2 cells were then treated with 50 μL of pre-warmed media (37°C) containing SGC EPs/EIs at 200 μM to 0.02 μM (final concentration 100 μM, 10 μM, 1 μM, 0.1 μM and 0.01 μM). Three positive (1% Triton X-100) and negative (1% DMSO) control wells per plate were additionally included.
After addition of compounds, each plate was then incubated for a further 20 h before application of MTT for assessment of overt compound cytotoxicity using the MTT assay. The MTT assay was read using the POLARstar Omega (BMG LabTech, UK) plate reader at an absorbance of 570 nm. CC50s were calculated in GraphPad Prism.

[3] = motility, adult females, read-out: ADULT EC50 (95% Confidence Intervals) Females
[4] = motility, adult males, read-out: ADULT EC50 (95% Confidence Intervals) Males
[5] = two-fold titration 10 μM–0.625 μM, single replicate, approximate, read-out: SCHISTOSOMULA EC50 Motility
[6] = two-fold titration 10 μM–0.625 μM, single replicate, approximate, read-out: SCHISTOSOMULA EC50 Phenotype

Clc1cc2c(NC3CCCC3)nnc(-c3ccncc3)c2cc1Cl [A-196, 8,9-dichloro-N-cyclopentyl-5-(pyridin-4-yl)-3,4-diaza-bicyclo[4.4.0]deca-1(10),2,4,6,8-pentaen-2-amine]
SELECTIVITY INDEX Adult Females [1]: 3.13 | SELECTIVITY INDEX Adult Males [1]: 2.24 | EC50 [1, 3]: 16 µM | EC50 [1, 4]: 22.3 µM | SELECTIVITY INDEX Schistosomula Motility (S. mansoni schistosomula): 10.45 | SELECTIVITY INDEX Schistosomula Phenotype (S. mansoni schistosomula): 36.00 | EC50 (S. mansoni schistosomula; [5]): 4.78 µM | EC50 (S. mansoni schistosomula; [6]): 1.39 µM | CC50 at 20 h ([2]; HepG2 cells): > 50 µM

CCN(C(=O)CO)C1CN(C(=Nc2cccc(OC(F)F)c2)NC#N)N=C1c1ccccc1 (stereo not drawn) [BAY-369]
hit / activity against schistosomula, single-point screen (S. mansoni schistosomula): None of these chemotype controls demonstrated anti-schistosomula activity; also recorded: is not

CC(=O)Nc1ccc(C(=O)Nc2ccccc2N)cc1 [CI-994]
hit / activity against schistosomula, single-point screen (S. mansoni schistosomula): non-hit

CCOC(=O)CCNc1cc(N2CCc3ccccc3CC2)nc(-c2cccnc2)n1 [GSKJ5]
hit / activity against schistosomula, single-point screen (S. mansoni schistosomula): None of these chemotype controls demonstrated anti-schistosomula activity

CCn1cc(-c2cccc(C(F)(F)F)c2)c2sc(C(=N)NC3CCS(=O)(=O)CC3)cc2c1=O [I-BRD9, N-(1,1-dioxidotetrahydro-2H-thiopyran-4-yl)-5-ethyl-4-oxo-7-(3-(trifluoromethyl)phenyl)-4,5-dihydrothieno[3,2-c]pyridine-2-carboximidamide]
SELECTIVITY INDEX Adult Females [1]: 1.31 | SELECTIVITY INDEX Adult Males [1]: 1.10 | EC50 [1, 3]: 24 µM | EC50 [1, 4]: 28.5 µM | SELECTIVITY INDEX Schistosomula Motility (S. mansoni schistosomula): 7.61 | SELECTIVITY INDEX Schistosomula Phenotype (S. mansoni schistosomula): 24.44 | EC50 (S. mansoni schistosomula; [5]): 4.13 µM | EC50 (S. mansoni schistosomula; [6]): 1.29 µM | CC50 at 20 h ([2]; HepG2 cells): 31.4 µM

CCC(=O)N1CCOc2c(cc(-c3ccc(OC)c(OC)c3)cc2OC[C@H]2CCCN(C)C2)C1 [I-CBP112, 1-[7-(3,4-dimethoxyphenyl)-9-{[(3S)-1-methylpiperidin-3-yl]methoxy}-2,3,4,5-tetrahydro-1,4-benzoxazepin-4-yl]propan-1-one]
hit / activity against schistosomula, single-point screen (S. mansoni schistosomula): did not

Cc1sc2c(c1C)C(c1ccc(Cl)cc1)=N[C@@H](CC(=O)OC(C)(C)C)c1nnc(C)n1-2 [JQ1, [(S)-4-(4-Chloro-phenyl)-2,3,9-trimethyl-6H-1-thia-5,7,8,9a-tetraaza-cyclopenta[e]azulen-6-yl]-acetic acid tert-butyl este]
SELECTIVITY INDEX Adult Females [1]: 0.73 | SELECTIVITY INDEX Adult Males [1]: 0.92 | EC50 ([1]; read-out: ADULT EC50 (95% Confidence Intervals) Females): 22.8 µM | EC50 ([1]; read-out: ADULT EC50 (95% Confidence Intervals) Males): 18.3 µM | SELECTIVITY INDEX Schistosomula Motility (S. mansoni schistosomula): 5.53 | SELECTIVITY INDEX Schistosomula Phenotype (S. mansoni schistosomula): 3.56 | EC50 (S. mansoni schistosomula; read-out: SCHISTOSOMULA EC50 Motility): 3.04 µM | EC50 (S. mansoni schistosomula; read-out: SCHISTOSOMULA EC50 Phenotype): 4.72 µM | CC50 at 20 h [2]: 16.8 µM

O=C(/C=C/c1ccc(CN(CCO)CCc2c[nH]c3ccccc23)cc1)NO [LAQ824]
SELECTIVITY INDEX Adult Females [1]: 0.95 | SELECTIVITY INDEX Adult Males [1]: 0.63 | EC50 [1, 3]: 16.5 µM | EC50 [1, 4]: 25 µM | hit / activity against schistosomula, single-point screen (S. mansoni schistosomula): hit | SELECTIVITY INDEX Schistosomula Motility (S. mansoni schistosomula): 6.40 | SELECTIVITY INDEX Schistosomula Phenotype (S. mansoni schistosomula): 7.04 | EC50 (S. mansoni schistosomula; [5]): 2.45 µM | EC50 (S. mansoni schistosomula; [6]): 2.22 µM | CC50 at 20 h ([2]; HepG2 cells): 15.6 µM

CC(C)Oc1ccc(-c2c[nH]cc2CN(C)CCN)cc1 [MS023, 3-(((2-amino-ethyl)-methyl-amino)-methyl)-4-(4-(1-methyl-ethoxy)-phenyl)-1H-pyrrole]
SELECTIVITY INDEX Adult Females [1]: 0.62 | SELECTIVITY INDEX Adult Males [1]: 0.62 | EC50 [1, 3]: 26.3 µM | EC50 [1, 4]: 26.2 µM | SELECTIVITY INDEX Schistosomula Motility (S. mansoni schistosomula): 2.52 | SELECTIVITY INDEX Schistosomula Phenotype (S. mansoni schistosomula): 4.14 | EC50 (S. mansoni schistosomula; [5]): 6.45 µM | EC50 (S. mansoni schistosomula; [6]): 3.92 µM | CC50 at 20 h ([2]; HepG2 cells): 16.2 µM

CCCc1cc(C)n(C)c(=O)c1CN(C)C(=O)c1cc(-c2ccc(N3CCN(C(C)C)CC3)nc2)cc2c1cnn2C(C)C [UNC2400]
hit / activity against schistosomula, single-point screen (S. mansoni schistosomula): None of these chemotype controls demonstrated anti-schistosomula activity
